A short description of data set [1]: Comparative stability study of solutions of docetaxel tri-hydrate and anhydrous forms in polysorbate 80 with and without acid. The format is physicochemical. The note with it: solutions in polyethoxylated sorbitol previously or posteriorly acidified.
The nature of data set [2]: Comparative stability study between the tri-hydrate and anhydrous forms of docetaxel (bulk substance). The format is physicochemical. On the set-up: Assay (H2O): unit not given here. The note with it: for A % Docetaxel / A % Impurities (unknown) / Assay (H2O): bulk substance; for A % Docetaxel: amber glass vials under N2 over P2O5, −5 to 0° C.; for A % Docetaxel / A % Impurities (unknown): HPLC; for A % Impurities (unknown) / Assay (H2O): −5 to 0° C.; for Assay (H2O): Karl Fischer titration. The method, then:
Comparative stability study between the tri-hydrate and anhydrous forms of (2R,3S)4-acetoxy-2-α-benzoyloxy-5β-20-epoxy-1,7-β-10-β-tri-hydroxy-9-oxo-tax-11-en-13α-il 3-tert-butoxycarbonylamino-2-hydroxy-3-phenylpropionate
Analysis was realized by HPLC using a Waters Spherisorb® C-18, 250×5 mm column, mobile phase MeOH:H2O 85:15, flow 1.5 mL/min. Related impurities reported as A % discounting the peak due to the dead volume. Samples were stored in amber glass vials under N2 in a dessicator over P2O5 maintained between −5 and 0° C.

The conditions of data set [3]: statement of patent application PI 9508789-3; cited from earlier work.
The mark [4] stands for this setting: stored under adequate and controlled conditions.

Each structure is given as a SMILES string.

For the molecule `CC(=O)O[C@@]12CO[C@@H]1C[C@H](O)[C@@]1(C)C(=O)[C@H](O)C3=C(C)[C@@H](OC(=O)[C@H](O)[C@@H](NC(=O)OC(C)(C)C)c4ccccc4)C[C@@](O)([C@@H](OC(=O)c4ccccc4)[C@H]21)C3(C)C` [Docetaxel (anhydrous), (2R,3S)4-acetoxy-2-α-benzoyloxy-5β-20-epoxy-1,7-β-10-β-tri-hydroxy-9-oxo-tax-11-en-13α-il 3-tert-butoxycarbonylamino-2-hydroxy-3-phenylpropionate], the “stability conferred to the pharmaceutical finished dosage form” value in data set [1] is “equal or superior stability”. In addition, the “A % Docetaxel” value amounted to 99.28 A % in data set [2] (0 months); 99.21 A % in data set [2] (3 months); 99.26 A % in data set [2] (6 months); 98.93 A % in data set [2] (12 months); 98.65 A % in data set [2] (18 months); 98.29 A % in data set [2] (24 months). For the same molecule, the “A % Impurities (unknown)” value is listed as 0.72 A % in data set [2] (0 months); 0.79 A % in data set [2] (3 months); 0.73 A % in data set [2] (6 months); 1.07 A % in data set [2] (12 months); 1.35 A % in data set [2] (18 months); 1.71 A % in data set [2] (24 months). For the same molecule, the “Assay (H2O)” value in data set [2] (0 months) is reported as 0.10; in data set [2] (3 months), 0.11; in data set [2] (6 months), 0.12; in data set [2] (12 months), 0.09; in data set [2] (18 months), 0.12; in data set [2] (24 months), 0.13. For the same molecule, the re-hydration on storage result in data set [2] (setting [4]) is “does not re-hydrate to a significant degree”. Also, the “stability of anhydrous product compared with tri-hydrate” value in data set [2] (setting [4]) is reported as “stability equal or superior to the tri-hydrate”.
On to `CC(=O)O[C@@]12CO[C@@H]1C[C@H](O)[C@@]1(C)C(=O)[C@H](O)C3=C(C)[C@@H](OC(=O)[C@H](O)[C@@H](NC(=O)OC(C)(C)C)c4ccccc4)C[C@@](O)([C@@H](OC(=O)c4ccccc4)[C@H]21)C3(C)C` [Docetaxel (tri-hydrate), tri-hydrate of (2R,3S)4-acetoxy-2-α-benzoyloxy-5β-20-epoxy-1,7-β-10-β-tri-hydroxy-9-oxo-tax-11-en-13α-il 3-tert-butoxycarbonylamino-2-hydroxy-3-phenylpropionate], for which the “A % Docetaxel” value in data set [2] (0 months) came to 99.51 A %; in data set [2] (3 months) it was 99.23 A %; in data set [2] (6 months) it was 99.30 A %; in data set [2] (12 months), 98.91 A %; in data set [2] (18 months), 98.72 A %; in data set [2] (24 months) it was 98.21 A %. Besides, the “A % Impurities (unknown)” value in data set [2] (0 months) is given as 0.49 A %; in data set [2] (3 months) it was 0.77 A %; in data set [2] (6 months), 0.70 A %; in data set [2] (12 months), 1.09 A %; in data set [2] (18 months) it was 1.28 A %; in data set [2] (24 months), 1.79 A %. In addition, the “Assay (H2O)” value in data set [2] (0 months) was found to be 6.32; in data set [2] (3 months) it was 6.35; in data set [2] (6 months) it was 6.21; in data set [2] (12 months), 6.42; in data set [2] (18 months), 6.31; in data set [2] (24 months) it was 6.29. In addition, the “stability of tri-hydrate relative to anhydrous product” value in data set [3] is “clearly superior stability relative to the anhydrous product”.

The values above are taken from patent US8304450B2, “Stable pharmaceutical compositions with docetaxel” (Quiral Quimica Do Brasil S.A., priority 2003, dated 2012).
